Assays:
Settings in all cases: 11-point 3-fold dilution, qPCR readout
FGFR3 (V555M) = molecular target: T1, FGFR3 (V555M) (Homo sapiens, UniProt P22607, V555M); assay: Kinase binding assay (Kd), FGFR3 (V555M)
T1 construct: made in house; host or cells: E. coli host derived from BL21, infected with T7 phage
Procedure: (§1) Kinase-tagged T7 phage strains were prepared in an E. coli host derived from the BL21 strain. E. coli were grown to log-phase and infected with T7 phage and incubated with shaking at 32° C. until lysis. The lysates were centrifuged and filtered to remove cell debris. Streptavidin-coated magnetic beads were treated with biotinylated small molecule ligands for 30 minutes at room temperature to generate affinity resins for kinase assays. The liganded beads were blocked with excess biotin and washed with blocking buffer SeaBlock (Pierce), 1% BSA, 0.05% Tween 20, 1 mM DTT to remove unbound ligand and to reduce non-specific binding. Binding reactions were assembled by combining kinases, liganded affinity beads, and test compounds in 1× binding buffer (20% SeaBlock, 0.17×PBS, 0.05% Tween 20, 6 mM DTT).
(§2) Test compounds were prepared as 111X stocks in 100% DMSO. Kds were determined using an 11-point 3-fold compound dilution series with three DMSO control points. All compounds for Kd measurements are distributed by acoustic transfer (non-contact dispensing) in 100% DMSO. The compounds were then diluted directly into the assays such that the final concentration of DMSO was 0.9%. All reactions performed in polypropylene 384-well plate. Each was a final volume of 0.02 ml. The assay plates were incubated at room temperature with shaking for 1 hour and the affinity beads were washed with wash buffer (lx PBS, 0.05% Tween 20). The beads were then re-suspended in elution buffer (lx PBS, 0.05% Tween 20, 0.5 μM non-biotinylated affinity ligand) and incubated at room temperature with shaking for 30 minutes. The kinase concentration in the eluates was measured by qPCR.
(§3) Binding constants were calculated with a standard dose-response curve using the Hill equation: […]
(§4) The Hill Slope was set to −1. Curves were fitted using a non-linear least square fit with the Levenberg-Marquardt algorithm.

FGFR3 = molecular target: T2, FGFR3 (Homo sapiens, UniProt P22607); assay: Kinase binding assay (Kd), FGFR3
T2 construct: made in house; host or cells: E. coli host derived from BL21, infected with T7 phage
Procedure: as §1, §2, §3, §4

FGFR2 = molecular target: T3, FGFR2 (Homo sapiens, UniProt P21802); assay: Kinase binding assay (Kd), FGFR2
T3 construct: made in house; host or cells: E. coli host derived from BL21, infected with T7 phage
Procedure: as §1, §2, §3, §4

FGFR1 = molecular target: T4, FGFR1 (Homo sapiens, UniProt P11362); assay: Kinase binding assay (Kd), FGFR1
T4 construct: made in house; host or cells: E. coli host derived from BL21, infected with T7 phage
Procedure: as §1, §2, §3, §4

FGFR4 = molecular target: T5, FGFR4 (Homo sapiens, UniProt P22455); assay: Kinase binding assay (Kd), FGFR4
T5 construct: made in house; host or cells: E. coli host derived from BL21, infected with T7 phage
Procedure: as §1, §2, §3, §4

T5 sequence (P22455 22-802): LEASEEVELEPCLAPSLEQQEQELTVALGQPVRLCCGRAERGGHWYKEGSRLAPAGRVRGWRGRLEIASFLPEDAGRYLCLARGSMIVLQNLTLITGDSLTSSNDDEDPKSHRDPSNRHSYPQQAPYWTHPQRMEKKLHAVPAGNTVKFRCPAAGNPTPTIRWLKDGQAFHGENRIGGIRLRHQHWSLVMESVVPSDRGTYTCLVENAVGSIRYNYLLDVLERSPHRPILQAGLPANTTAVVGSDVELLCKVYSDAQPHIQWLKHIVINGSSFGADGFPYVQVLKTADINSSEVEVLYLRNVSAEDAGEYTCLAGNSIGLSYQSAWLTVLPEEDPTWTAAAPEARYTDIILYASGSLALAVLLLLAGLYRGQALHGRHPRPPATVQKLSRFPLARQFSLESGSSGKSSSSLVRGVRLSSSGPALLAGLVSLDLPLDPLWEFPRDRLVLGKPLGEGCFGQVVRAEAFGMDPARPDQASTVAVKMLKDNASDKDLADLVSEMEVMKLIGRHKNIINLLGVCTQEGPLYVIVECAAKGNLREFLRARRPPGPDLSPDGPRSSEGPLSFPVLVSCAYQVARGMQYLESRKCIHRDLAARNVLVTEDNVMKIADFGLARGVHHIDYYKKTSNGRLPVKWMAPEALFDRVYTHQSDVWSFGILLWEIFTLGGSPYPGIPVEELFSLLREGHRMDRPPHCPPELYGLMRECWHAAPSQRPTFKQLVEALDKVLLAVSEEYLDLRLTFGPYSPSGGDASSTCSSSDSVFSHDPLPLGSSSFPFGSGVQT
T2 sequence (P22607 23-806): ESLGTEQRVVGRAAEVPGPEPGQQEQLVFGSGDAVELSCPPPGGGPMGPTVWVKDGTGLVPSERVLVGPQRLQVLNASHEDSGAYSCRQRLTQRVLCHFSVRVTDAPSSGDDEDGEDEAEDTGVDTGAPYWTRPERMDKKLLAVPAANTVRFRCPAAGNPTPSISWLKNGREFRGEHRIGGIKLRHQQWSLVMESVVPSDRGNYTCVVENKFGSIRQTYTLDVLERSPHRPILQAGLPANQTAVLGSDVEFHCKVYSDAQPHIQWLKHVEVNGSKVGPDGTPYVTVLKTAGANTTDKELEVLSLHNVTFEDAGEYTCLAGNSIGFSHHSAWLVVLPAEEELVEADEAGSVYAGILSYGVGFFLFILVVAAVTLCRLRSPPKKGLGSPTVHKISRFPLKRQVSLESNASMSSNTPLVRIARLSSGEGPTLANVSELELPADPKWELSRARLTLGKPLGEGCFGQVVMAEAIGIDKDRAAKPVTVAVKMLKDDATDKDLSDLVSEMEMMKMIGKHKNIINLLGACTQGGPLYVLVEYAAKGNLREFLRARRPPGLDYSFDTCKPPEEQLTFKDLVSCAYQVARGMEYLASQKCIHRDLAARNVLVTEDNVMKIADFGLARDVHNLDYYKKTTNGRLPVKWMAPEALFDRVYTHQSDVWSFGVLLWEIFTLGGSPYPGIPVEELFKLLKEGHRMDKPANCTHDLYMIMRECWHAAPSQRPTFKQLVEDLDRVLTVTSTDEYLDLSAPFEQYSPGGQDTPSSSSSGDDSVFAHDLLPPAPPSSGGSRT
T4 sequence (P11362 22-822): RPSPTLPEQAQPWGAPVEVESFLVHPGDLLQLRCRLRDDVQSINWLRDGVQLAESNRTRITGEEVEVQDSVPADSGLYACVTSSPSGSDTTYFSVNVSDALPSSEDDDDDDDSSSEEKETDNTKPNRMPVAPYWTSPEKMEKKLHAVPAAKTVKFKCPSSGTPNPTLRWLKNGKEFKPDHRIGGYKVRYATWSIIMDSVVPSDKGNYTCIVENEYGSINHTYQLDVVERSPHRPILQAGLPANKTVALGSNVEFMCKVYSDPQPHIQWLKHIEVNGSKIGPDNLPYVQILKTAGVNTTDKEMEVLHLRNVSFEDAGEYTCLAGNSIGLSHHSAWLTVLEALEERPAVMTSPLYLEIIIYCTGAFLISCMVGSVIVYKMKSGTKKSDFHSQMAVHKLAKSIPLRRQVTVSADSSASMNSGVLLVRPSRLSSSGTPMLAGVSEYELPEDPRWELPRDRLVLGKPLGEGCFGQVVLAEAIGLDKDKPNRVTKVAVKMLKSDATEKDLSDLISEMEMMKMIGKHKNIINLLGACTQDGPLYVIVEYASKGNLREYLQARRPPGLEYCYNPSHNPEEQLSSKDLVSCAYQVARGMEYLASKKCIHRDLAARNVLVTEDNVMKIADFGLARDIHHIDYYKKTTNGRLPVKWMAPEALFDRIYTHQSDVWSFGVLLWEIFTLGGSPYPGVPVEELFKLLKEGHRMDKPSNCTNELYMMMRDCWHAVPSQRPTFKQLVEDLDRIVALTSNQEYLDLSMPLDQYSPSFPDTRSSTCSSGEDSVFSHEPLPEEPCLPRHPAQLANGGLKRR
T1 sequence (P22607 23-806 V555M): as the sequence (P22607 23-806) above, with V533M counted along it
T3 sequence (P21802 22-821): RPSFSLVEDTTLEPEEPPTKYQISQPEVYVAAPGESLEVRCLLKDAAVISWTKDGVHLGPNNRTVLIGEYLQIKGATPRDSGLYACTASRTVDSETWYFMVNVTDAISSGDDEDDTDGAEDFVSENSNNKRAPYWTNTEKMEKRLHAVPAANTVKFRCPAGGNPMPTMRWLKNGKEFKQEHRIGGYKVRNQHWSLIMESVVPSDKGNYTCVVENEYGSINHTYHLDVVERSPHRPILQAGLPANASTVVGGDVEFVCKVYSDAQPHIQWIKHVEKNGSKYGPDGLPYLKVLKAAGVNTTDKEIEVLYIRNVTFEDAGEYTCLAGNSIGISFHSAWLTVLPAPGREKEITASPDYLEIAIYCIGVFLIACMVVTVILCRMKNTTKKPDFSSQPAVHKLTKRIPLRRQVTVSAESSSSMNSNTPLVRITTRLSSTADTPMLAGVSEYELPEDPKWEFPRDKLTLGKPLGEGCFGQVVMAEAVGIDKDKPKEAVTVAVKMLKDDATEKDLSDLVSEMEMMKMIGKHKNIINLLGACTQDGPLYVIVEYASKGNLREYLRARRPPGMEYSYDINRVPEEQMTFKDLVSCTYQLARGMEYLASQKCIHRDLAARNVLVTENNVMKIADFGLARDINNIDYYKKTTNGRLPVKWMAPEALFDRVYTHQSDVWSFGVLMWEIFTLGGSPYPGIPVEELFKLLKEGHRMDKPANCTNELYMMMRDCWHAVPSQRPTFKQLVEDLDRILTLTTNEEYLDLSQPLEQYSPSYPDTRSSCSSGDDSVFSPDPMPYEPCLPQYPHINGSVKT

Kd (FGFR3 (V555M)) [nM] | Kd (FGFR3) [nM] | Kd (FGFR2) [nM] | Kd (FGFR1) [nM] | Kd (FGFR4) [µM] | Structure (SMILES)
840 | 8800 | 26000 | 20000 |  | C=CC(=O)Nc1ccc2c(ccn2-c2nc(Nc3ccc(S(C)(=N)=O)cc3OC)ncc2Cl)c1 (single isomer, unassigned) [Example 88, N-[1-[5-Chloro-2-[2-methoxy-4-(methylsulfonimidoyl)-anilino]-pyrimidin-4-yl]indol-5-yl]prop-2-enamide]
53 | 430 | 1900 | 480 | 0.039 | CCOc1cc(N=S(C)(C)=O)ccc1Nc1ncc(Cl)c(-c2c[nH]c3ccccc23)n1 [Example 2, 5-Chloro-N-[4-[[dimethyl(oxo)-λ^6-sulfanylidene]amino]-2-ethoxy-phenyl]-4-(1H-indol-3-yl)pyrimidin-2-amine]
420 | 4300 | 14000 | 3300 | 6.2 | COc1c(N=S(C)(C)=O)cccc1Nc1ncc(Cl)c(-c2c[nH]c3ccccc23)n1 [Example 5, 5-chloro-N-[3-[[dimethyl(oxo)-λ^6-sulfanylidene]amino]-2-methoxy-phenyl]-4-(1H-indol-3-yl)pyrimidin-2-amine]
90 | 1100 | 1700 | 390 | 2 | COc1ccc(N=S(C)(C)=O)cc1Nc1ncc(Cl)c(-c2c[nH]c3ccccc23)n1 [Example 6, 5-chloro-N-[5-[[dimethyl(oxo)-λ^6-sulfanylidene]amino]-2-methoxy-phenyl]-4-(1H-indol-3-yl)pyrimidin-2-amine]
4 | 29 | 24 | 19 | 0.18 | CS(C)(=O)=Nc1ccc(Nc2ncc(Cl)c(-c3c[nH]c4ccccc34)n2)cc1 [Example 8, 5-chloro-N-[4-[[dimethyl(oxo)-λ^6-sulfanylidene]amino]phenyl]-4-(1H-indol-3-yl)pyrimidin-2-amine]
57 | 370 | 3300 | 350 | 0.057 | CS(C)(=O)=Nc1ccc(Nc2nccc(-c3c[nH]c4ccccc34)n2)cc1 [Example 10, N-[4-[[dimethyl(oxo)-λ^6-sulfanylidene]amino]phenyl]-4-(1H-indol-3-yl)pyrimidin-2-amine]
3700 | 18000 | 14000 | 29000 |  | CS(C)(=O)=Nc1ccc(Nc2cc(-n3ccc4ccccc43)ncn2)cc1 [Example 15, N-[4-[[dimethyl(oxo)-λ^6-sulfanylidene]amino]phenyl]-6-indol-1-yl-pyrimidin-4-amine]
140 | 570 | 600 | 2200 | 9.5 | CN1CCS(=O)(=Nc2ccc(Nc3nccc(-n4ccc5ccccc54)n3)cc2)CC1 [Example 16, 4-Indol-1-yl-N-[4-[(4-methyl-1-oxo-1,4-thiazinan-1-ylidene)amino]phenyl]-pyrimidin-2-amine]
12000 | 20000 | 21000 |  |  | CS(C)(=O)=Nc1ccc(Nc2nccc(-n3ccc4ccccc43)n2)c(N)c1 [Example 18, 4-[[dimethyl(oxo)-λ^6-sulfanylidene]amino]-N1-(4-indol-1-ylpyrimidin-2-yl)benzene-1,2-diamine]
 | 27000 |  |  |  | CC(=O)c1cn(-c2nc(Nc3ccc(N=S(C)(C)=O)cc3)ncc2C)c2ccccc12 [Example 21, 1-[1-[2-[4-[[Dimethyl(oxo)-λ^6-sulfanylidene]amino]anilino]-5-methyl-pyrimidin-4-yl]indol-3-yl]ethanone]
4 | 44 | 63 | 27 | 0.29 | Cc1ccc2c(-c3nc(Nc4ccc(N=S(C)(C)=O)cc4)ncc3C)c[nH]c2c1 [Example 28, N-[4-[[dimethyl(oxo)-λ^6-sulfanylidene]amino]phenyl]-5-methyl-4-(6-methyl-1H-indol-3-yl)pyrimidin-2-amine]
2 | 35 | 41 | 27 | 0.19 | COc1ccc2c(-c3nc(Nc4ccc(N=S(C)(C)=O)cc4)ncc3C)c[nH]c2c1 [Example 30, N-[4-[[dimethyl(oxo)-λ^6-sulfanylidene]amino]phenyl]-4-(6-methoxy-1H-indol-3-yl)-5-methyl-pyrimidin-2-amine]
1 | 3 | 3 | 2 | 0.052 | COc1cc(Nc2ncc(C)c(-c3c[nH]c4c(F)cccc34)n2)ccc1N=S(C)(C)=O [Example 32, N-[4-[[dimethyl(oxo)-λ^6-sulfanylidene]amino]-3-methoxy-phenyl]-4-(7-fluoro-1H-indol-3-yl)-5-methyl-pyrimidin-2-amine]

The remaining lines, values behind:

Structure (SMILES) | Kd (FGFR3 (V555M)) [nM] | Kd (FGFR3) [nM] | Kd (FGFR2) [nM] | Kd (FGFR1) [nM] | Kd (FGFR4) [µM]
COc1cc(N=S(C)(C)=O)ccc1Nc1ncc(Cl)c(-c2c[nH]c3ccccc23)n1 [Example 1, 5-chloro-N-[4-[[dimethyl(oxo)-λ^6-sulfanylidene]amino]-2-methoxy-phenyl]-4-(1H-indol-3-yl)pyrimidin-2-amine] | 15 | 170 | 370 | 140 | 0.13
CC(C)COc1cc(N=S(C)(C)=O)ccc1Nc1ncc(Cl)c(-c2c[nH]c3ccccc23)n1 [Example 4, 5-chloro-N-[4-[[dimethyl(oxo)-λ^6-sulfanylidene]amino]-2-isobutoxy-phenyl]-4-(1H-indol-3-yl)pyrimidin-2-amine] | 4100 |  |  | 21000 | 0.21
CS(C)(=O)=Nc1cccc(Nc2ncc(Cl)c(-c3c[nH]c4ccccc34)n2)c1 [Example 7, 5-chloro-N-[3-[[dimethyl(oxo)-λ^6-sulfanylidene]amino]phenyl]-4-(1H-indol-3-yl)pyrimidin-2-amine] | 4 | 40 | 140 | 21 | 0.28
CCOc1cc(N=S(C)(C)=O)ccc1Nc1ncc(C)c(-c2c[nH]c3c(C)cccc23)n1 [Example 9, N-[4-[[dimethyl(oxo)-λ^6-sulfanylidene]amino]-2-ethoxy-phenyl]-5-methyl-4-(7-methyl-1H-indol-3-yl)pyrimidin-2-amine] | 57 | 370 | 3300 | 350 | 0.057
CS(C)(=O)=Nc1ccc(Nc2cc(-c3c[nH]c4ccccc34)ncn2)cc1 [Example 12, N-[4-[[dimethyl(oxo)-λ^6-sulfanylidene]amino]phenyl]-6-(1H-indol-3-yl)pyrimidin-4-amine] | 57 | 370 | 3300 | 350 | 0.057
CS(C)(=O)=Nc1ccc(Nc2nccc(-n3ccc4ccccc43)n2)cc1 [Example 13, N-[4-[[dimethyl(oxo)-λ^6-sulfanylidene]amino]phenyl]-4-indol-1-yl-pyrimidin-2-amine] | 57 | 370 | 3300 | 350 | 0.057
Cc1cnc(Nc2ccc(N=S(C)(C)=O)cc2)nc1-n1ccc2ccccc21 [Example 14, N-[4-[[dimethyl(oxo)-λ^6-sulfanylidene]amino]phenyl]-4-indol-1-yl-5-methyl-pyrimidin-2-amine] | 9 | 170 | 110 | 190 | 1.5
C=CC(=O)Nc1cc(N=S(C)(C)=O)ccc1Nc1nccc(-n2ccc3ccccc32)n1 [Example 19, N-[5-[[dimethyl(oxo)-λ^6-sulfanylidene]amino]-2-[(4-indol-1-ylpyrimidin-2-yl)amino]phenyl]prop-2-enamide] | 3000 |  |  |  | 
C=CC(=O)Nc1cc(N=S(C)(C)=O)ccc1Nc1ncc(C)c(-c2c[nH]c3ccccc23)n1 [Example 20, N-[5-[[Dimethyl(oxo)-λ^6-sulfanylidene]amino]-2-[[4-(1H-indol-3-yl)-5-methyl-pyrimidin-2-yl]amino]phenyl]prop-2-enamide] | 4 | 27 | 51 | 37 | 0.12
Cc1cnc(Nc2ccc(N=S(C)(C)=O)cc2)nc1-c1c[nH]c2cc(F)ccc12 [Example 29, N-[4-[[dimethyl(oxo)-λ^6-sulfanylidene]amino]phenyl]-4-(6-fluoro-1H-indol-3-yl)-5-methyl-pyrimidin-2-amine] | 4 | 21 | 46 | 15 | 0.21

Reference: patent US20230115945A1, “AMINOPYRIMIDINE COMPOUNDS” (TYRA BIOSCIENCES, INC., priority 2019, published 2023)
